We go through 1 molecule from patent publication US20030134869A1, “Novel therapeutic use of nicergoline” (priority 1998, published 2003).

Assay [1] relates to motor neurons in astrocyte/motor neuron co-cultures. The assay can be described thus: Survival of motor neurons in astrocyte/motor neuron co-cultures. The assay is classed as cell-based, rats. To be noted: for % OF LABELED MOTOR NEURONS: vehicle alone = 100 ± 9.4. The procedure: (§1) The motor neuron-enriched cultures are prepared using the centrifugation method which was described by R. L. SCHNAAR and A. E. SCHAFFNER, J. Neurosci., 1, 204-217 (1981) and modified by W. CAMU and C. E. HENDERSON, J. Neurosci. Methods, 44, 59-70 (1992). The motor neurons are spread, at a density of 2500 cells per plate, on 35 mm culture plates which have previously been coated with laminin/ornithine in accordance with the method of A. G. ESTEVEZ et al., J. Neurosci., 18 (3), 923-931 (1998). The cultures are then maintained in L15 medium (GIBCO BRL) containing sodium bicarbonate (22 mM), conalbumin (0.1 mg/ml), putrescine (0.1 mM), insulin (5 μg/ml), sodium selenite ([…]), glucose (20 mM), progesterone (21 nM), penicillin (100 IU/ml) and streptomycin (100 μg/ml).
The astrocytes are obtained from young, one-day-old rats using the slightly modified method of R. P. SANETO and J. DE VELLIS as described in Neurochemistry a practical approach (A. J. TURNER and H. S. St JOHN) IRL Press, Oxford-Washington D.C., pp. 27-63. The spinal cords are dissected out under sterile conditions and freed of meninges and dorsal ganglia. Five to ten spinal cords are transferred into PBS (phosphate buffer saline) and cut before being incubated at 37° C. for 25 minutes in PBS to which 0.25% trypsin has been added. The enzymatic treatment is stopped by adding 10 ml of Dulbecco's modified Eagle medium (DMEM), to which 10% fetal calf serum (FCS) has been added, and the cells are collected by centrifugation. Another step of mechanical dissociation is performed using the end of a 1 ml pipette. The cells are spread, at a density of 1.5-2×10^6 cells per 25 cm^2 of culture medium, in DMEM containing 10% FCS. After 2 days in vitro, the cultures are fed every day. When a visible monolayer of cells has been completed, the cultures are stirred at 250 rpm for 48 hours and, on the following day, the monolayers are treated with cytosine arabinoside (10^−5 M) for 48 hours. The astrocyte monolayers are then amplified to a density of five on 35 mm culture plates for initially 25 cm^2 culture flasks.
The spinal astrocyte cultures consist, to an extent of more than 98%, of flat, polygonal cells which are immunoreactive for the glial fibrillar acid protein (GFAP). The monolayers are exposed to the product to be tested and then incubated with the motor neuron medium in order to obtain a conditioned culture medium. This medium is transferred and tested at different dilutions in order to determine its effects on neuronal survival.
The cells are fixed in 4% paraformaldehyde and 0.1% glutaraldehyde in PBS (pH 7.4 and at 4° C. for 15 minutes) and in a cold methanolic solution. […]

In assay [2] the test system is motor neurons in motor neuron-enriched cultures. The assay can be described thus: Neuronal death in motor neuron-enriched cultures in the absence of trophic factor. The assay is classed as cell-based. As to conditions: p<0.05. The procedure: The effect of nicergoline has therefore been determined in a degeneration model which is induced by depriving cultured motor neurons of neurotrophic factor.
as §1
More than 70% of the cells are immunoreactive for the neurotrophin p75 receptor and the Islet ½ markers for spinal motor neurons. […]
The number of motor neurons is estimated by counting the labeled cells in an area of 0.4-1 cm^2 under a microscope which enlarges 200 times. In all cases, the values are expressed as a percentage of the number of motor neurons which are present in cultures maintained using trophic factors. […]

Regarding `CO[C@]12C[C@@H](COC(=O)c3cncc(Br)c3)CN(C)[C@@H]1Cc1cn(C)c3cccc2c13` [Nicergoline, (8β)-10-methoxy-1,6-dimethylergoline-8-methanol-5-bromonicotinate], the “% OF LABELED MOTOR NEURONS” value was 115.7 ± 16% in assay [1] (nicergoline 0.1 μM); 145.5 ± 24 % in assay [1] (nicergoline 1 μM, p < 0.05 vs vehicle); 163.7 ± 22.5 % in assay [1] (nicergoline 10 μM, p < 0.01 vs vehicle). In addition, the “increase of the survival of motor neurons as compared with cocultures treated with the vehicle alone” value in assay [1] (nicergoline 10 μM) is reported as 63.7%. In assay [2], the “increase of the survival of the motor neurons” value is 13%.
